Data published in BindingDB's records for doi:10.1016/j.bmcl.2011.12.117 (Astrazeneca, 2012).

Experiment: Antagonist activity at CCR5 in allo T cells assessed as inhibition of MIP-1beta-induced chemotaxis

CCN(C(=O)Cc1ccc(S(C)(=O)=O)cc1)C1CCN(CC[C@@H](c2cc(F)cc(F)c2)C2CCN(S(C)(=O)=O)CC2)CC1
IC50: 0.69 nM
